Reference: patent publication US8952157B2, “Apoptosis-inducing agents for the treatment of cancer and immune and autoimmune diseases” (AbbVie Inc., priority 2008, dated 2015)

target: GST-Bcl-2 (Homo sapiens (Human), UniProt P10415); test: Time Resolved-Fluorescence Resonance Energy Transfer (TR-FRET) Bcl-2 binding assay; details: not given
In short: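 Ki values derived from TR-FRET displacement of F-Bak peptide from GST-Bcl-2, detected with Tb-labelled anti-GST antibody (ex 340, em 520/495 nm). Compound dilution series started at 50 μM (2× starting concentration); room-temperature incubation 3 hours.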

Chain of GST-Bcl-2 (P10415 whole entry): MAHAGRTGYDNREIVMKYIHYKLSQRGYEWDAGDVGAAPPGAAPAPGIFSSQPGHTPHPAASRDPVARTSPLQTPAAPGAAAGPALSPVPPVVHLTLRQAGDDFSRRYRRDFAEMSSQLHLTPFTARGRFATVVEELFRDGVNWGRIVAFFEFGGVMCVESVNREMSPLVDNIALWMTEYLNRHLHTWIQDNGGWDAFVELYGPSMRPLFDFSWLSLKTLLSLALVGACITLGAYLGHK

In order of rising Ki:
1. CC1(C)CCC(CN2CCN(c3ccc(C(=O)NS(=O)(=O)c4ccc(N[C@H]5CC[C@H](N6CCOCC6)CC5)c([N+](=O)[O-])c4)c(Oc4cccc5c4CC(=O)N5)c3)CC2)=C(c2ccc(Cl)cc2)C1 [Example 320, Trans-4-(4-{[2-(4-chlorophenyl)-4,4-dimethylcyclohex-1-en-1-yl]methyl}piperazin-1-yl)-N-({4-[(4-morpholin-4-ylcyclohexyl)amino]-3-nitrophenyl}sulfonyl)-2-[(2-oxo-2,3-dihydro-1H-indol-4-yl)oxy]benzamide]  0.028 nM
2. CN1CCC(Nc2ccc(S(=O)(=O)NC(=O)c3ccc(N4CCN(CC5=C(c6ccc(Cl)cc6)CC(C)(C)CC5)CC4)cc3Oc3cc4cc[nH]c4cc3C(F)(F)F)cc2[N+](=O)[O-])CC1 [Example 217, 4-(4-{[2-(4-chlorophenyl)-4,4-dimethylcyclohex-1-en-1-yl]methyl)piperazin-1-yl)-N-((4-[(1-methylpiperidin-4-yl)amino]-3-nitrophenyl}sulfonyl)-2-{[6-(trifluoromethyl)-1H-indol-5-yl]oxy}benzamide]  0.174 nM

same assay, conditions: GST-Bcl-2 1 nM, F-Bak peptide probe 100 nM, Tb-anti-GST antibody 1 nM; Ki by Wang's equation

In order of rising Ki:
1. CC1(C)CCC(CN2CCN(c3ccc(C(=O)NS(=O)(=O)c4ccc(OCC5CCOCC5)c([N+](=O)[O-])c4)c(Oc4cnc(N)c(Cl)c4)c3)CC2)=C(c2ccc(Cl)cc2)C1 [Example 381, 2-[(6-amino-5-chloropyridin-3-yl)oxy]-4-(4-{[2-(4-chlorophenyl)-4,4-dimethylcyclohex-1-en-1-yl]methyl}piperazin-1-yl)-N-{[3-nitro-4-(tetrahydro-2H-pyran-4-ylmethoxy)phenyl]sulfonyl}benzamide]  0.02 nM
2. CN1CCC(O)(CNc2ccc(S(=O)(=O)NC(=O)c3ccc(N4CCN(CC5=C(c6ccc(Cl)cc6)CC(C)(C)CC5)CC4)cc3Oc3ccccc3Cl)cc2[N+](=O)[O-])CC1 [Example 192, 2-(2-chlorophenoxy)-4-(4-{[2-(4-chlorophenyl)-4,4-dimethylcyclohex-1-en-1-yl]methyl}piperazin-1-yl)-N-[(4-{[(4-hydroxy-1-methylpiperidin-4-yl)methyl]amino}-3-nitrophenyl)sulfonyl]benzamide]  0.024 nM
3. CC(c1ccccc1-c1ccc(Cl)cc1)N1CCN(c2ccc(C(=O)NS(=O)(=O)c3ccc(NC4CCN(C)CC4)c([N+](=O)[O-])c3)c(Oc3ccccc3Cl)c2)CC1 (centres unmarked) [Example 206, 4-{4-[1-(4′-chloro-1,1′-biphenyl-2-yl)ethyl]piperazin-1-yl}-2-(2-chlorophenoxy)-N-({4-[(1-methylpiperidin-4-yl)amino]-3-nitrophenyl}sulfonyl)benzamide]  0.037 nM
4. CC1(C)CC(c2ccc(Cl)cc2)=C(CN2CCN(c3ccc(C(=O)NS(=O)(=O)c4cnc(OCC5CCOCC5)c(C#N)c4)c(Oc4cc5cc[nH]c5cc4F)c3)CC2)CO1 [Example 298, 4-(4-{[4-(4-chlorophenyl)-6,6-dimethyl-5,6-dihydro-2H-pyran-3-yl]methyl}piperazin-1-yl)-N-{[5-cyano-6-(tetrahydro-2H-pyran-4-ylmethoxy)pyridin-3-yl]sulfonyl}-2-[(6-fluoro-1H-indol-5-yl)oxy]benzamide]  0.054 nM
5. CC1(C)CCC(CN2CCN(c3ccc(C(=O)NS(=O)(=O)c4ccc(NCCCN5CCOCC5)c([N+](=O)[O-])c4)c(Oc4cccc(F)c4F)c3)CC2)=C(c2ccc(Cl)cc2)C1 [Example 51, 4-(4-((2-(4-chlorophenyl)-4,4-dimethylcyclohex-1-en-1-yl)methyl)piperazin-1-yl)-2-(2,3-difluorophenoxy)-N-((4-((3-morpholin-4-ylpropyl)amino)-3-nitrophenyl)sulfonyl)benzamide]  0.066 nM
6. CC1(C)CCC(CN2CCN(c3ccc(C(=O)NS(=O)(=O)c4ccc(NCCCN5CCOCC5)c([N+](=O)[O-])c4)c(Oc4ccc(N)c(Cl)c4)c3)CC2)=C(c2ccc(Cl)cc2)C1 [Example 52, 2-(4-amino-3-chlorophenoxy)-4-(4-((2-(4-chlorophenyl)-4,4-dimethylcyclohex-1-en-1-yl)methyl)piperazin-1-yl)-N-((4-((3-morpholin-4-ylpropyl)amino)-3-nitrophenyl)sulfonyl)benzamide]  0.072 nM
7. CC1(C)CCC(CN2CCN(c3ccc(C(=O)NS(=O)(=O)c4cnc(OCC5COCCO5)c(C#N)c4)c(Oc4cc5cc[nH]c5cc4F)c3)CC2)=C(c2ccc(Cl)cc2)C1 (centres unmarked) [Example 305, 4-(4-{[2-(4-chlorophenyl)-4,4-dimethylcyclohex-1-en-1-yl]methyl}piperazin-1-yl)-N-{[5-cyano-6-(1,4-dioxan-2-ylmethoxy)pyridin-3-yl]sulfonyl}-2-[(6-fluoro-1H-indol-5-yl)oxy]benzamide]  0.146 nM
8. CN(C)CCCNc1ccc(S(=O)(=O)NC(=O)c2ccc(N3CCN(Cc4ccccc4-c4ccc(Cl)cc4)CC3)cc2Oc2cccc3c2CCC(=O)N3)cc1[N+](=O)[O-] [Example 58, 4-(4-((4′-chloro-1,1′-biphenyl-2-yl)methyl)piperazin-1-yl)-N-((4-((3-(dimethylamino)propyl)amino)-3-nitrophenyl)sulfonyl)-2-((2-oxo-1,2,3,4-tetrahydroquinolin-5-yl)oxy)benzamide]  0.155 nM
9. CC1(C)CCC(CN2CCN(c3ccc(C(=O)NS(=O)(=O)c4ccc(NN5CCS(=O)(=O)CC5)c([N+](=O)[O-])c4)c(Oc4cc5cc[nH]c5cc4F)c3)CC2)=C(c2ccc(Cl)cc2)C1 [Example 331, 4-(4-{[2-(4-chlorophenyl)-4,4-dimethylcyclohex-1-en-1-yl]methyl}piperazin-1-yl)-N-({4-[(1,1-dioxidothiomorpholin-4-yl)amino]-3-nitrophenyl}sulfonyl)-2-[(6-fluoro-1H-indol-5-yl)oxy]benzamide]  0.238 nM
10. CN1CCN(Nc2ccc(S(=O)(=O)NC(=O)c3ccc(N4CCN(CC5=C(c6ccc(Cl)cc6)CC(C)(C)CC5)CC4)cc3Oc3ccc(O)cc3Cl)cc2[N+](=O)[O-])CC1 [Example 208, 2-(2-chloro-4-hydroxyphenoxy)-4-(4-{[2-(4-chlorophenyl)-4,4-dimethylcyclohex-1-en-1-yl]methyl}piperazin-1-yl)-N-({4-[(4-methylpiperazin-1-yl)amino]-3-nitrophenyl}sulfonyl)benzamide]  0.261 nM
11. CN(C)CCCNc1ccc(S(=O)(=O)NC(=O)c2ccc(N3CCN(Cc4ccccc4-c4ccc(Cl)cc4)CC3)cc2Oc2ccc(Cl)cc2)cc1[N+](=O)[O-] [Example 15, 4-(4-((4′-chloro-1,1′-biphenyl-2-yl)methyl)piperazin-1-yl)-2-(4-chlorophenoxy)-N-((4-((3-(dimethylamino)propyl)amino)-3-nitrophenyl)sulfonyl)benzamide]  0.586 nM
12. COCOc1cccc(Oc2cc(N3CCN(CC4=C(c5ccc(Cl)cc5)CC(C)(C)CC4)CC3)ccc2C(=O)NS(=O)(=O)c2ccc(NC3CCN(C)CC3)c([N+](=O)[O-])c2)c1C [Example 158, 4-(4-{[2-(4-chlorophenyl)-4,4-dimethylcyclohex-1-en-1-yl]methyl}piperazin-1-yl)-2-[3-(methoxymethoxy)-2-methylphenoxy]-N-({4-[(1-methylpiperidin-4-yl)amino]-3-nitrophenyl}sulfonyl)benzamide]  0.619 nM
13. CN(C)C(=O)Cc1ccccc1Oc1cc(N2CCN(Cc3ccccc3-c3ccc(Cl)cc3)CC2)ccc1C(=O)NS(=O)(=O)c1ccc(NCC2CCOCC2)c([N+](=O)[O-])c1 [Example 27, 4-(4-((4′-chloro-1,1′-biphenyl-2-yl)methyl)piperazin-1-yl)-2-(2-(2-(dimethylamino)-2-oxoethyl)phenoxy)-N-((3-nitro-4-((tetrahydro-2H-pyran-4-ylmethyl)amino)phenyl)sulfonyl)benzamide]  2.21 nM
14. CN1CCC(Nc2ccc(S(=O)(=O)NC(=O)c3ccc(N4CCN(CC5=C(c6ccc(Cl)cc6)CC(C)(C)CC5)CC4)cc3Oc3c(F)cccc3Cl)cc2[N+](=O)[O-])CC1 [Example 151, 2-(2-chloro-6-fluorophenoxy)-4-(4-{[2-(4-chlorophenyl)-4,4-dimethylcyclohex-1-en-1-yl]methyl}piperazin-1-yl)-N-({4-[(1-methylpiperidin-4-yl)amino]-3-nitrophenyl}sulfonyl)benzamide]  6.94 nM
15. CC1(C)CCC(CN2CCN(c3ccc(C(=O)NS(=O)(=O)c4ccc(NCC5CCOCC5)c([N+](=O)[O-])c4)c(Oc4ccnc(NC(=O)OC(C)(C)C)c4)c3)CC2)=C(c2ccc(Cl)cc2)C1 [Example 280, tert-butyl 4-(5-(4-{[2-(4-chlorophenyl)-4,4-dimethylcyclohex-1-en-1-yl]methyl}piperazin-1-yl)-2-{[({3-nitro-4-[(tetrahydro-2H-pyran-4-ylmethyl)amino]phenyl}sulfonyl)amino]carbonyl}phenoxy)pyridin-2-ylcarbamate]  7.55 nM
16. O=C(NS(=O)(=O)c1ccc(NCCCN2CCOCC2)c([N+](=O)[O-])c1)c1ccc(N2CCN(Cc3ccccc3-c3ccc(Cl)cc3)CC2)cc1Oc1cccc(N2CCOCC2)c1 [Example 69, 4-(4-((4′-chloro-1,1′-biphenyl-2-yl)methyl)piperazin-1-yl)-2-(3-morpholin-4-ylphenoxy)-N-((4-((3-morpholin-4-ylpropyl)amino)-3-nitrophenyl)sulfonyl)benzamide]  8.25 nM
17. CN(C)CCCNc1ccc(S(=O)(=O)NC(=O)c2ccc(N3CCN(Cc4ccccc4-c4ccc(Cl)cc4)CC3)cc2Oc2ccc3[nH]cc(CCC(=O)N4CCOCC4)c3c2)cc1[N+](=O)[O-] [Example 70, 4-(4-((4′-chloro-1,1′-biphenyl-2-yl)methyl)piperazin-1-yl)-N-((4-((3-(dimethylamino)propyl)amino)-3-nitrophenyl)sulfonyl)-2-((3-(3-morpholin-4-yl-3-oxopropyl)-1H-indol-5-yl)oxy)benzamide]  20.4 nM
18. CCN(Cc1cccc(Oc2cc(N3CCN(Cc4ccccc4-c4ccc(Cl)cc4)CC3)ccc2C(=O)NS(=O)(=O)c2ccc(NCC3CCOCC3)c([N+](=O)[O-])c2)c1)C(=O)OC(C)(C)C [Example 79, tert-butyl 3-(5-(4-((4′-chloro-1,1′-biphenyl-2-yl)methyl)piperazin-1-yl)-2-((((3-nitro-4-((tetrahydro-2H-pyran-4-ylmethyl)amino)phenyl)sulfonyl)amino)carbonyl)phenoxy)benzyl(ethyl)carbamate]  99.8 nM
